Target: T1, full-length human PKCι (Homo sapiens, UniProt P41743)
T1 construct: Recombinant, full-length human PKCι expressed in Sf21 insect cells is also commercially available; purchased; host or cells: Sf21 insect cells
T1 sequence (P41743 1-596): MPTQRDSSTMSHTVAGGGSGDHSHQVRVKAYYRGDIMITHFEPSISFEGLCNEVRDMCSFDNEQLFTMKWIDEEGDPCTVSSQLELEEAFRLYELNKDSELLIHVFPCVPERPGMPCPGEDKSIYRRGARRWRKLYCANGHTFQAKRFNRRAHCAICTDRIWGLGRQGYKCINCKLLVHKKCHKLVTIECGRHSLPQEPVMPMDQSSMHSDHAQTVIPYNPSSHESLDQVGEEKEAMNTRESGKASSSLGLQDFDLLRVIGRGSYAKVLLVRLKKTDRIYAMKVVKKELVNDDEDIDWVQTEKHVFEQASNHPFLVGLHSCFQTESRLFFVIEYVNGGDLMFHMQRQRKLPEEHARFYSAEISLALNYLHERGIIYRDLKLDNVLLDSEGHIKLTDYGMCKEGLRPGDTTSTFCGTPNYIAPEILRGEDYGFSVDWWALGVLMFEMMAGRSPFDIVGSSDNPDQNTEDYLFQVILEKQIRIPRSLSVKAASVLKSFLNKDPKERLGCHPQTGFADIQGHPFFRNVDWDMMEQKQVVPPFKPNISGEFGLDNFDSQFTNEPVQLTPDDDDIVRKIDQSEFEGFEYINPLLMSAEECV
Assay: PKCι IC50 IMAP assay, full-length PKCι at 150 μM ATP
Assay type: biochemical
Conditions: read-out: IC50 in IMAP assay against full length PKCi at 150 μM ATP
Description: Assays are based on the ability of PKCι to phosphorylate a commercially available peptide substrate in vitro. The peptide substrate is FAM-PKCε pseudopeptide derived peptide, and comprises the amino acid sequence 5FAM-[…]-NH2. Recombinant, full-length human PKCι expressed in Sf21 insect cells is also commercially available. Recombinant, kinase-domain human PKCι is expressed and purified in-house.
The procedure below explains how dose response curves for inhibitors of PKCι are obtained. The screen described is for a 384 well format but the assay can be adapted to 1536 or other formats as required.
Compounds to be tested are dissolved in 100% DMSO. Compounds are diluted as required to give a final concentration of 4% DMSO (v/v) in the assay. 1 μl is plated into 384 well black low-binding flat bottomed assay plates which are used immediately. Dilutions and additions of compound to assay plates are carried out using Matrix WellMate® and Matrix PlateMate® Plus liquid handling systems.
On the day of the screen PKCι/substrate working solution, and ATP working solution, are prepared in buffer containing 20 mM tris-HCl pH7.5, 10 mM MgCl2, 0.01% Triton X100, 250 μM EGTA and 1 mM DTT. The final concentration of PKCι used varies depending on the batch of protein but is typically 15 pM. The final concentration of peptide substrate in the assay is 100 nM. ATP is used at a final concentration of 150 μM or 25 μM in the assays containing full-length or kinase-domain PKCι respectively, which corresponds to five times or equal to the KM^APP for ATP for each enzyme, respectively. The final buffer concentration in the assay is 18 mM tris-HCl pH7.5, 9 mM MgCl2, 0.009% Triton X100, 225 μM EGTA and 0.9 mM DTT. Relevant controls are included, namely no compound and no enzyme. 5 μl PKCι/substrate working solution at 30 pM and 200 nM, respectively, is added to the wells, followed by 4 μl ATP working solution at 375 μM or 62.5 μM for full-length or kinase-domain PKCι respectively, using a 16 channel Matrix pipette. The reaction is allowed to incubate for 60 minutes at room temperature, before the reaction is stopped and developed by the addition of 20 μl IMAP™ development reagent (Molecular Devices). IMAP development reagent consists of 0.25% (v/v) IMAP progressive binding reagent, 17% (v/v) IMAP progressive binding buffer A and 3% (v/v) IMAP progressive binding buffer B. The plates are then incubated for 2 hours at room temperature before being read using an appropriate plate reader, for example a Molecular Devices HT Analyst or a BMG Pherastar. Plates are read using a fluorescence polarisation protocol with excitation at 485 nm and emission at 530 nm, and dichroic mirror at 505 nm.
Percentage inhibition values are calculated from fluorescence polarisation values, using the no compound and no enzyme control values as 0% and 100% inhibition, respectively. IC50 determination is performed with ExcelFit software (IDBS) using curve fit 205. Z′ factors are determined for each plate tested and are all above 0.5.

Molecule	IC50 [nM]
4-{5-(4-Cyano-pyridin-2-ylamino)-2-[2-(4-cyano-pyridin-2-ylamino)-pyridin-4-yl]-pyrido[3,4-d]pyrimidin-4-yl}-piperazine [Example 249]	< 100
COc1cncc2nc(-c3ccncc3)nc(N3CCN[C@@H](C(O)c4ccc(F)cc4)C3)c12 (mixture of isomers) [Example 77, (4-fluorophenyl) [(2R)-4-[5-methoxy-2-(pyridin-4-yl)-pyrido[3,4-d]-pyrimidin-4-yl]-piperazin-2-yl]-methanol]	< 100
COc1cncc2nc(-c3ccnc(Nc4ccccc4)c3)nc(N3CC[C@@H](O)[C@H](O)C3)c12 (racemic) [Example 437, (±)-trans-1-[5-Methoxy-2-(2-phenylamino-pyridin-4-yl)-pyrido[3,4-d]pyrimidin-4-yl]-piperidine-3,4-diol]	100 to 1000
N#Cc1ccnc(Nc2cc(-c3nc(N4CCC(O)C(O)C4)c4c(C5CC5)cncc4n3)ccn2)c1 (racemic) [Example 485, (±)-2-{4-[5-Cyclopropyl-4-cis-3,4-dihydroxy-piperidin-1-yl)-pyrido[3,4-d]pyrimidin-2-yl]-pyridin-2-ylamino}-isonicotinonitrile]	< 100
CN1CCN(c2cccc(Nc3cc(-c4nc(N5CC[C@H](O)[C@H](O)C5)c5c(C6CC6)cncc5n4)ccn3)c2)CC1 (racemic) [Example 602, (+/−)-(cis)-1-(5-Cyclopropyl-2-{2-[3-(4-methyl-piperazin-1-yl)-phenylamino]-pyridin-4-yl}-pyrido[3,4-d]pyrimidin-4-yl)-piperidine-3,4-diol]	< 100
O[C@@H]1CN(c2nc(-c3ccnc(Nc4ccccc4)c3)nc3cncc(C4CC4)c23)CC[C@@H]1O (racemic) [Example 675, (+/−)-(cis)-1-[5-Cyclopropyl-2-(2-phenylamino-pyridin-4-yl)-pyrido[3,4-d]pyrimidin-4-yl]-piperidine-3,4-diol]	100 to 1000
O[C@@H]1CCN(c2nc(-c3ccnc(Nc4ccccc4)c3)nc3cncc(C4CC4)c23)C[C@H]1O (racemic) [Example 676, (+/−)-(trans)-1-[5-Cyclopropyl-2-(2-phenylamino-pyridin-4-yl)-pyrido[3,4-d]pyrimidin-4-yl]-piperidine-3,4-diol]	100 to 1000
N#Cc1ccnc(Nc2cc(-c3nc(N4CC[C@@H](O)[C@H](O)C4)c4c(C5CC5)cncc4n3)ccn2)c1 (racemic) [Example 677, (+/−)-2-{4-[5-Cyclopropyl-4-((trans)-3,4-dihydroxy-piperidin-1-yl)-pyrido[3,4-d]pyrimidin-2-yl]-pyridin-2-ylamino}-isonicotinonitrile]	100 to 1000
CN1CCN(c2cccc(Nc3cc(-c4nc(N5CCC(O)C(O)C5)c5c(C6CC6)cncc5n4)ccn3)c2)CC1 (racemic) [Example 678, (+/−)-(trans)-1-(5-Cyclopropyl-2-{2-[3-(4-methyl-piperazin-1-yl)-phenylamino]-pyridin-4-yl}-pyrido[3,4d]pyrimidin-4-yl)-piperidine-3,4-diol]	< 100
c1cc(-c2nc(N3CCNCC3)c3c(C4CC4)cncc3n2)cc(N[C@@H]2C[C@H]3CC[C@@H]2C3)n1 (racemic) [Example 695, (+/−)-(1RS,2RS,4SR)-Bicyclo[2.2.1]hept-2-yl-[4-(5-cyclopropyl-4-piperazin-1-yl-pyrido[3,4-d]pyrimidin-2-yl)-pyridin-2-yl]-amine]	< 100
O[C@@H]1CN(c2nc(-c3ccnc4[nH]c(C(F)(F)F)cc34)nc3cncc(C4CC4)c23)CC[C@@H]1O (racemic) [Example 1234, (+/−)-(cis)-1-[5-Cyclopropyl-2-(2-trifluoromethyl-1H-pyrrolo[2,3-b]pyridin-4-yl)-pyrido[3,4-d]pyrimidin-4-yl]-piperidine-3,4-diol]	100 to 1000
O[C@@H]1CCN(c2nc(-c3ccnc4[nH]c(C(F)(F)F)cc34)nc3cncc(C4CC4)c23)C[C@H]1O (racemic) [Example 1235, (+/−)-(trans)-1-[5-Cyclopropyl-2-(2-trifluoromethyl-1H-pyrrolo[2,3-b]pyridin-4-yl)-pyrido[3,4-d]pyrimidin-4-yl]-piperidine-3,4-diol]	100 to 1000
N#Cc1cccc(Nc2cc(-c3nc(N4CC[C@H](O)[C@H](O)C4)c4c(C5CC5)cncc4n3)ccn2)n1 (relative stereo) [Example 745, 6-{4-[5-Cyclopropyl-4-((cis)-3,4-dihydroxy-piperidin-1-yl)-pyrido[3,4-d]pyrimidin-2-yl]-pyridin-2-ylamino}-pyridine-2-carbonitrile]	100 to 1000

Second part, the molecule after the results:

IC50 [nM]	Molecule
< 100	O[C@@H]1CN(c2nc(-c3ccnc(Nc4cccc(N5CCOCC5)c4)c3)nc3cncc(C4CC4)c23)CC[C@@H]1O (racemic) [Example 2005, (+/−)-cis-1-{5-Cyclopropyl-2-[2-(3-morpholin-4-yl-phenylamino)-pyridin-4-yl]-pyrido[3,4-d]pyrimidin-4-yl}-piperidine-3,4-diol]
< 100	c1cc(-c2nc(N3CCNCC3)c3c(C4CC4)cncc3n2)c2cc([C@H]3C[C@H]4CC[C@@H]3C4)[nH]c2n1 (racemic) [Example 2079, (±)-2-((endo)-2-Bicyclo[2.2.1]hept-2-yl-1H-pyrrolo[2,3-b]pyridin-4-yl)-5-cyclopropyl-4-piperazin-1-yl-pyrido[3,4-d]pyrimidine]
< 100	c1cc(-c2nc(N3CCNCC3)c3c(C4CC4)cncc3n2)cc(N[C@@H]2C[C@H]3CC[C@@H]2O3)n1 (racemic) [Example 2093, (±)-exo-[4-(5-Cyclopropyl-4-piperazin-1-yl-pyrido[3,4-d]pyrimidin-2-yl)-pyridin-2-yl]--7-oxa-bicyclo[2.2.1]hept-2-yl-amine]
< 100	c1cc(-c2nc(N3CCNCC3)c3c(C4CC4)cncc3n2)c2cc([C@@H]3C[C@H]4CC[C@@H]3O4)[nH]c2n1 (racemic) [Example 2121, (±)-exo-5-Cyclopropyl-2-[2-(7-oxa-bicyclo[2.2.1]hept-2-yl)-1H-pyrrolo[2,3-b]pyridin-4-yl]-4-piperazin-1-yl-pyrido[3,4-d]pyrimidine]
< 100	c1cc(-c2nc(N3CCNCC3)c3c(C4CCC4)cncc3n2)c2cc([C@@H]3C[C@H]4CC[C@@H]3O4)[nH]c2n1 (racemic) [Example 2122, (±)-exo-5-Cyclobutyl-2-[2-(7-oxa-bicyclo[2.2.1]hept-2-yl)-1H-pyrrolo[2,3-b]pyridin-4-yl]-4-piperazin-1-yl-pyrido[3,4-d]pyrimidine]
< 100	c1cc(-c2nc(N3CCNCC3)c3c(C4CCC4)cncc3n2)c2cc([C@H]3C[C@H]4CC[C@@H]3C4)[nH]c2n1 (racemic) [Example 2135, (±)-endo-2-(2-Bicyclo[2.2.1]hept-2-yl-1H-pyrroIo[2,3-b]pyridin-4-yl)-5-cyclobutyl-4-piperazin-1-yl-pyridor3,4-d]pyrimidine]
< 100	O[C@H]1c2ccccc2C[C@@H]1Nc1cc(-c2nc(N3CCNCC3)c3c(C4CC4)cncc3n2)ccn1 (relative stereo) [Example 2158, trans-2-[4-(5-Cyclopropyl-4-piperazin-1-yl-pyrido[3,4-d]pyrimidin-2-yl)-pyridin-2-ylamino]-indan-1-ol]

— patent US9914730B2, “Azaquinazoline inhibitors of Atypical protein Kinase C” (Ignyta, Inc., priority 2012, dated 2018)
